Experimental data from patent US11111251B2, “Positive allosteric modulators of the muscarinic acetylcholine receptor M1” (Vanderbilt University, priority 2016, dated 2021).
Like-named read-outs stand apart in the source and are kept apart here.

Molecular target: T1, human mAChR M1 (Homo sapiens, UniProt P11229)
T1 sequence (P11229 1-460): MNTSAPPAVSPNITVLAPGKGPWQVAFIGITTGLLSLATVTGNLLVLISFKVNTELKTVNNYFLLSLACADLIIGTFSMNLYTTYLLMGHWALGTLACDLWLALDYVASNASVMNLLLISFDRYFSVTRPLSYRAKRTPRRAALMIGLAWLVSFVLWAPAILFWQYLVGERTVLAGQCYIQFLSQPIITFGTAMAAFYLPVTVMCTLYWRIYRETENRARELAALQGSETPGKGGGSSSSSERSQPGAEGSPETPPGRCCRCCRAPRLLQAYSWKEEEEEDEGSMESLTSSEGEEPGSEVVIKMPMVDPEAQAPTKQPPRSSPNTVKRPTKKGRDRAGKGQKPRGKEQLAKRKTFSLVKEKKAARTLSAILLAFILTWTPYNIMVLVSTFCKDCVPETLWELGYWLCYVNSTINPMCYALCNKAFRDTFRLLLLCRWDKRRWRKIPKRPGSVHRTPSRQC
Test: mAChR M1 cell-based functional assay: calcium mobilization, positive allosteric modulator mode (increase in EC20 acetylcholine response)
Settings: for Emax: read-out: Human M1 Emax (%)
How it was run: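 Calcium-flux assay in CHO-K1 cells stably expressing human M1, loaded with Fluo-4 AM (50 min, 37 °C) and read at 1 Hz. Compound (11-point, 1:3 series) was added at 4 s, EC20 acetylcholine at 144 s and EC80 at 230 s. PAM activity is the concentration-dependent rise in the EC20 response, fitted with a four-parameter logistic.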

[1] = Table 2, human M1, read-out: Human M1 EC50
[2] = Table 1, mAChR M1 cell-based functional assay, PAM mode, species not given, read-out: EC50

EC50 [1]	Emax (Table 2, human M1)	EC50 [2]	Compound	Human M1 Emax (%) (Table 2, human M1)
5950 nM	81.1%		CN(C(=O)c1cc(Cc2ccc(-c3cscn3)cc2)c2sccc2n1)C1CCOCC1 [Compound 214, N-methyl-N-tetrahydropyran-4-yl-7-[(4-thiazol-4-ylphenyl)methyl]thieno[3,2-b]pyridine-5-carboxamide]	
360 nM	57.2%		Cn1ccc2nc(C(=O)NC3CCOCC3)cc(Cc3ccc(-c4nccs4)cc3)c21 [Compound 480, 1-methyl-N-tetrahydropyran-4-yl-7-[(4-thiazol-2-ylphenyl)methyl]pyrrolo[3,2-b]pyridine-5-carboxamide]	
80.5 nM	70.5%		Cn1ccc(-c2ccc(Cc3cc(C(=O)NC4CCOCC4)nc4ccsc34)cn2)n1 [Compound 350, 7-[[6-(1-methylpyrazol-3-yl)-3-pyridyl]methyl]-N-tetrahydropyran-4-yl-thieno[3,2-b]pyridine-5-carboxamide]	
> 10000 nM	20.1%		CO[C@@H]1CCCC[C@H]1NC(=O)c1cc(Cc2cnc(C)nc2)c2sccc2n1 [Compound 130, N-[(1R,2R)-2-methoxycyclohexyl]-7-[(2-methylpyrimidin-5-yl)methyl]thieno[3,2-b]pyridine-5-carboxamide]	
160 nM	81.8%		O=C(NC1CCOCC1)c1cc(Cc2ccc(-n3cccn3)cc2)c2sccc2n1 [Compound 228, 7-[(4-pyrazol-1-ylphenyl)methyl]-N-tetrahydropyran-4-yl-thieno[3,2-b]pyridine-5-carboxamide]	
> 10000 nM	42.1%		Cc1nn(C)cc1-c1ccc(Cc2cc(C(=O)N[C@H]3COCC[C@@H]3O)nc3ccsc23)cc1 [Compound 249, 7-[[4-(1,3-dimethylpyrazol-4-yl)phenyl]methyl]-N-[(3S,4S)-4-hydroxytetrahydropyran-3-yl]thieno[3,2-b]pyridine-5-carboxamide]	
1770 nM	65.4%		O=C(NC1CN(C2COC2)C1)c1cc(Cc2ccc(-n3cccn3)cc2)c2sccc2n1 [Compound 433, N-[1-(oxetan-3-yl)azetidin-3-yl]-7-[(4-pyrazol-1-ylphenyl)methyl]thieno[3,2-b]pyridine-5-carboxamide]	
84.9 nM	93.3%		Cn1cc(-c2ccc(Cc3cc(C(=O)NCC4CCO4)nc4ccsc34)cn2)cn1 (stereo not shown) [Compound 338, 7-[[6-(1-methylpyrazol-4-yl)-3-pyridyl]methyl]-N-(oxetan-2-ylmethyl)thieno[3,2-b]pyridine-5-carboxamide]	
366 nM	70.7%		Cc1csc2c(Cc3ccc(-c4ccn(C)n4)cc3)cc(C(=O)N[C@H]3CCC[C@@H]3O)nc12 [Compound 303, N-[(1S,2S)-2-hydroxycyclopentyl]-3-methyl-7-[[4-(1-methylpyrazol-3-yl)phenyl]methyl]thieno[3,2-b]pyridine-5-carboxamide]	
170 nM	60.7%		Cn1ccc(-c2ccc(Cc3cc(C(=O)NC4CCOCC4(C)C)nc4ccsc34)cn2)n1 (stereo not shown) [Compound 376, N-(3,3-dimethyltetrahydropyran-4-yl)-7-[[6-(1-methylpyrazol-3-yl)-3-pyridyl]methyl]thieno[3,2-b]pyridine-5-carboxamide]	
2290 nM	76.9%		CN1CC(NC(=O)c2cc(Cc3ccc(-n4cccn4)cc3)c3sccc3n2)C1 [Compound 435, N-(1-methylazetidin-3-yl)-7-[(4-pyrazol-1-ylphenyl)methyl]thieno[3,2-b]pyridine-5-carboxamide]	
1010 nM	71.1%		Cc1ccc(Cc2cc(C(=O)NC3CCCCCC3(C)O)nc3ccsc23)cn1 (stereo not shown) [Compound 235, N-(2-hydroxy-2-methyl-cycloheptyl)-7-[(6-methyl-3-pyridyl)methyl]thieno[3,2-b]pyridine-5-carboxamide]	
14.8 nM	64.2%		Cn1ccc(-c2ccc(Cc3cc(C(=O)N[C@H]4CCCC[C@@H]4O)nc4ccsc34)cn2)n1 [Compound 354, N-[(1S,2S)-2-hydroxycyclohexyl]-7-[[6-(1-methylpyrazol-3-yl)-3-pyridyl]methyl]thieno[3,2-b]pyridine-5-carboxamide]	
67.7 nM	66.9%		O=C(NCC1CCO1)c1cc(Cc2ccc(-n3cccn3)cc2)c2sccc2n1 (stereo not shown) [Compound 284, N-(oxetan-2-ylmethyl)-7-[(4-pyrazol-1-ylphenyl)methyl]thieno[3,2-b]pyridine-5-carboxamide]	
> 10000 nM	84.5%		O=C(NC1CCCCC1)c1cc(Cc2ccc(-n3cccn3)cc2)c2sccc2n1 [Compound 72, N-cyclohexyl-7-[(4-pyrazol-1-ylphenyl)methyl]thieno[3,2-b]pyridine-5-carboxamide]	
7.31 nM	63.6%		Cn1cc(-c2ccc(Cc3cc(C(=O)N[C@H]4CCOC[C@@H]4O)nc4ccsc34)cn2)cn1 [Compound 225, N-[(3R,4S)-3-hydroxytetrahydropyran-4-yl]-7-[[6-(1-methylpyrazol-4-yl)-3-pyridyl]methyl]thieno[3,2-b]pyridine-5-carboxamide]	
> 10000 nM	59.1%		Cc1ncc(Cc2cc(C(=O)N[C@@H]3CCC[C@H]3O)nc3ccsc23)cn1 [Compound 125]	
4230 nM	52.1%		Cc1nc(-c2ccc(Cc3cc(C(=O)NC4CCCCC4)nc4ccsc34)cc2)cs1 [Compound 185, N-cyclohexyl-7-[[4-(2-methylthiazol-4-yl)phenyl]methyl]thieno[3,2-b]pyridine-5-carboxamide]	

More lines, now with the values behind:

Compound	EC50 [1]	Emax (Table 2, human M1)	EC50 [2]	Human M1 Emax (%) (Table 2, human M1)
Cc1nc(-c2ccc(Cc3cc(C(=O)NC4CCCNC4=O)nc4ccsc34)cc2)co1 (stereo not shown) [Compound 171, 7-[[4-(2-methyloxazol-4-yl)phenyl]methyl]-N-(2-oxo-3-piperidyl)thieno[3,2-b]pyridine-5-carboxamide]	373 nM	93%		
Cc1nc(-c2ccc(Cc3cc(C(=O)N(C)C4CCOCC4)nc4ccsc34)cc2)co1 [Compound 165, N-methyl-7-[[4-(2-methyloxazol-4-yl)phenyl]methyl]-N-tetrahydropyran-4-yl-thieno[3,2-b]pyridine-5-carboxamide]	> 10000 nM	70.8%		
Cn1ccc(-c2ccc(Cc3cc(C(=O)NC4CCOCC4(C)C)nc4ccn(C)c34)cn2)n1 (stereo not shown) [Compound 505, N-(3,3-dimethyltetrahydropyran-4-yl)-1-methyl-7-[[6-(1-methylpyrazol-3-yl)-3-pyridyl]methyl]pyrrolo[3,2-b]pyridine-5-carboxamide;]	752 nM	79.4%		
Cc1csc2c(Cc3ccc(-n4cccn4)cc3)cc(C(=O)N[C@H]3CC[C@@H]3O)nc12 [Compound 113, N-[(1S,2S)-2-hydroxycyclobutyl]-3-methyl-7-[(4-pyrazol-1-ylphenyl)methyl]thieno[3,2-b]pyridine-5-carboxamide]	985 nM	83.8%		
COCCNC(=O)c1cc(Oc2ccc(C)nc2)c2sccc2n1 [Compound 33, N-(2-methoxyethyl)-7-[(6-methyl-3-pyridyl)oxy]thieno[3,2-b]pyridine-5-carboxamide]			> 10000 nM	
O=C(NC1CCOCC1)c1cc(C(F)c2ccc(-c3cscn3)cc2)c2sccc2n1 (stereo not shown) [Compound 332, 7-[fluoro-(4-thiazol-4-ylphenyl)methyl]-N-tetrahydropyran-4-yl-thieno[3,2-b]pyridine-5-carboxamide]	56.9 nM	69%		
O=C(NCC1CCO1)c1cc(Cc2ccc(-c3nccs3)cc2)c2sccc2n1 (stereo not shown) [Compound 382, N-(oxetan-2-ylmethyl)-7-[(4-thiazol-2-ylphenyl)methyl]thieno[3,2-b]pyridine-5-carboxamide]	386 nM	56.6%		
Cc1nc(-c2ccc(Cc3cc(C(=O)N(C)C4CCOCC4)nc4ccsc34)cc2)cs1 [Compound 190]	6140 nM	75.5%		
Cn1cc2c(-c3ccc(Oc4cc(C(=O)N[C@H]5COCC[C@@H]5O)nc5ccsc45)c(F)c3)cccc2n1 [Compound 14]			4250 nM	
Cn1ccc2nc(C(=O)NC3CC4(COC4)C3)cc(Cc3ccc(-n4cccn4)cc3)c21 [Compound 449, 1-Methyl-N-(2-oxaspiro[3.3]heptan-6-yl)-7-[(4-pyrazol-1-ylphenyl)methyl]pyrrolo[3,2-b]pyridine-5-carboxamide]	157 nM	73.1%		
N-[(1S,2S)-2-hydroxycyclohexyl]-7-(4-[(4-2-ylphenyl)methyl]thieno[3,2-b]pyridine-5-carboxamide [Compound 295]				72.42%
CC1CC(NC(=O)c2cc(Cc3ccc(-c4ccn(C)n4)nc3)c3c(ccn3C)n2)CC(C)O1 (stereo not shown) [Compound 506, N-(2,6-dimethyltetrahydropyran-4-yl)-1-methyl-7-[[6-(1-methylpyrazol-3-yl)-3-pyridyl]methyl]pyrrolo[3,2-b]pyridine-5-carboxamide;]	7120 nM	78.2%		
Cc1ccc(Oc2cc(C(=O)NC(CO)C3CC3)nc3ccsc23)cn1 (stereo not shown) [Compound 30, N-(1-cyclopropyl-2-hydroxy-ethyl)-7-[(6-methyl-3-pyridyl)oxy]thieno[3,2-b]pyridine-5-carboxamide]			> 10000 nM	
